Patent publication US20140303092A1 (CHIMERIX, INC., priority 2011, published 2014)

Test: Study HDP-CDV-201: safety and tolerability (adverse events, laboratory abnormalities, discontinuations)
Format: in vivo, human (adult allogeneic HSCT recipients)
Details: for Subjects with Neutrophils <0.5 GI/L / Subjects with Neutrophils <1.0-0.5 GI/L / Subjects with Neutrophils <1.5-1 GI/L / Subjects with Neutrophils <LLN-1.5 GI/L / Subjects with Platelets <25 GI/L / Subjects with Platelets <50-25 GI/L / Subjects with Platelets <75-50 GI/L / Subjects with Platelets <LLN-75 GI/L / Subjects with Serum Creatinine >1 × ULN-[…] ULN / Subjects with Serum Creatinine >3 × ULN-6 × ULN / Subjects with Serum Creatinine >6 × ULN / Subjects with Serum Creatinine >[…] ULN-3 × ULN / Subjects with WBC <1 GI/L / Subjects with WBC <2-1 GI/L / Subjects with WBC <3-2 GI/L / Subjects with WBC <LLN-3 GI/L / Subjects with Hemoglobin <6.5 g/dL / Subjects with Hemoglobin <8-6.5 g/dL / Subjects with Hemoglobin <10-8 g/dL / Subjects with Hemoglobin <LLN-10 g/dL: any time during therapy; for Subjects Receiving Aldesleukin / Subjects Receiving Blood and Related Products / Subjects Receiving Blood, Whole / Subjects Receiving Filgrastim / Subjects Receiving Granulocyte Colony Stimulating Factor / Subjects Receiving Pegfilgrastim / Subjects Receiving Platelets / Subjects Receiving Red Blood Cells / Subjects Receiving Red Blood Cells, Concentrated / Subjects Receiving Sargramostim: during the Treatment Period; for Cause of death: individual subjects who died
Protocol: Clinical Studies of HDP-CDV were performed and described in detail in the following Examples. For example, HDP-CDV-201 is a placebo-controlled, dose-escalating trial in HSCT CMV (R+) recipients, evaluating the ability of HDP-CDV to prevent or control CMV infection was carried out. Five cohorts were established in which participants or subjects received either placebo or the HDP-CDV orally, in doses ranging from 40 mg weekly (QW) to 200 mg twice weekly (BIW). Subjects who were post-HSCT were enrolled at the time of engraftment and randomized to HDP-CDV or placebo (3 to 1 ratio) and received blinded therapy until approximately 100 day post-transplantation. HDP-CDV doses were 40 mg QW, 100 mg QW, 200 mg QW, 200 mg BIW and 100 mg BIW. Escalation to the next dose was decided by the data monitoring committee after review of the safety data from the previous Cohort. Subjects who developed CMV disease or CMV infection requiring pre-emptive therapy with local standard of care were discontinued from blinded therapy and followed for 4 weeks. Subjects who completed treatment with blinded therapy were followed for 8 weeks post-therapy.
Data from Study HDP-CDV-201 also provided characterization of the safety and tolerability profile of HDP-CDV when administered for the prevention or control of CMV infection in high risk (R^+) post-HSCT adult subjects.
The Safety population (SAFETY) included all randomized subjects who took at least one dose of study treatment. This population was used to summarize safety outcomes based on the treatment actually received, in cases where a subject was treated contrary to the randomization schedule.
The safety and tolerability profile of HDP-CDV, including subject demographics and Baseline characteristics; the AE profile; and laboratory abnormalities of interest were analyzed in the cohorts followed in this investigation.
Subjects completing the treatment period received a full course of study medication; those completing the entire study attended visits through 8 weeks of follow up. Subjects who discontinued treatment may have done so for protocol specified reasons (e.g. development of clinically significant CMV infection requiring preemptive treatment with excluded anti-CMV medications) or for other reasons (e.g., withdrawal, adverse events, loss to follow-up). The disposition of subjects in Study HDP-CDV-201 during the double-blind, placebo-controlled treatment period (through Week 11) is listed by dosing Cohort in TABLE 23.
Adverse events were examined by severity to ensure that all safety signals were identified in this study population. Because of the frequency of events in HSCT recipients, particular attention was given to evaluation of Grade 3 […], 4 (severe), and 5 (fatal) adverse events.
Only those preferred terms for which at least one Grade 3 or higher event was experienced in any treatment group are listed. Cytomegalovirus-related AEs are excluded from this analysis.
HDP-CDV is a lipid conjugate of CDV. Because CDV is known to have adverse effects on renal function and bone marrow, decreased GFR and persistent neutropenia were identified as AEs of special interest. Key renal and hematological (TABLE 30) laboratory parameters were measured and listed below by Study HDP-CDV-201 treatment groups. TABLE 30 includes abnormal levels of serum creatinine, neutrophils, platelets, WBCs, and hemoglobin and includes data at Screening and during the treatment period.
A common metric for unit based dosing of medications is by weight (mg/kg). When the distribution of weights was examined for all subjects participating in the study, the median was 78 kg and the lower 25th percentile weight was approximately 65 kg, which translates to a cut-off of ˜3 mg/kg for a 200 mg total weekly dose. Based upon this approach, a cut-off of 3 mg/kg was used to assess the frequency of diarrhea and associated GI AEs reported for the subjects in Cohorts 3 or 4a (TABLE 40).

Structure (SMILES): CCCCCCCCCCCCCCCCOCCCOP(=O)(O)COC(CO)Cn1ccc(N)nc1=O (stereo not shown) [HDP-CDV]
- Subjects with Neutrophils <0.5 GI/L (100 mg QW): 3 (11.1%)
- Subjects with Neutrophils <1.0-0.5 GI/L (100 mg QW): 2 (7.4%)
- Subjects with Neutrophils <1.5-1 GI/L (100 mg QW): 9 (33.3%)
- Subjects with Neutrophils <LLN-1.5 GI/L (100 mg QW): 1 (3.7%)
- Subjects with Platelets <25 GI/L (100 mg QW): 4 (14.8%)
- Subjects with Platelets <50-25 GI/L (100 mg QW): 6 (22.2%)
- Subjects with Platelets <75-50 GI/L (100 mg QW): 6 (22.2%)
- Subjects with Platelets <LLN-75 GI/L (100 mg QW): 7 (25.9%)
- Subjects with Serum Creatinine >1 × ULN-[…] ULN (100 mg QW): 16 (59.3%)
- Subjects with Serum Creatinine >3 × ULN-6 × ULN (100 mg QW): 0
- Subjects with Serum Creatinine >6 × ULN (100 mg QW): 0
- Subjects with Serum Creatinine >[…] ULN-3 × ULN (100 mg QW): 5 (18.5%)
- Subjects with WBC <1 GI/L (100 mg QW): 3 (11.1%)
- Subjects with WBC <2-1 GI/L (100 mg QW): 4 (14.8%)
- Subjects with WBC <3-2 GI/L (100 mg QW): 6 (22.2%)
- Subjects with WBC <LLN-3 GI/L (100 mg QW): 4 (14.8%)
- Subjects with Hemoglobin <6.5 g/dL (200 mg BIW): 0
- Subjects with Hemoglobin <8-6.5 g/dL (200 mg BIW): 2 (7.1%)
- Subjects with Hemoglobin <10-8 g/dL (200 mg BIW): 12 (42.9%)
- Subjects with Hemoglobin <LLN-10 g/dL (200 mg BIW): 12 (42.9%)
- Subjects with Neutrophils <0.5 GI/L (200 mg BIW): 0
- Subjects with Neutrophils <1.0-0.5 GI/L (200 mg BIW): 4 (14.3%)
- Subjects with Neutrophils <1.5-1 GI/L (200 mg BIW): 7 (25.0%)
- Subjects with Neutrophils <LLN-1.5 GI/L (200 mg BIW): 3 (10.7%)
- Subjects with Platelets <25 GI/L (200 mg BIW): 8 (28.6%)
- Subjects with Platelets <50-25 GI/L (200 mg BIW): 8 (28.6%)
- Subjects with Platelets <75-50 GI/L (200 mg BIW): 2 (7.1%)
- Subjects with Platelets <LLN-75 GI/L (200 mg BIW): 6 (21.4%)
- Subjects with Serum Creatinine >1 × ULN-[…] ULN (200 mg BIW): 11 (37.9%)
- Subjects with Serum Creatinine >3 × ULN-6 × ULN (200 mg BIW): 0
- Subjects with Serum Creatinine >6 × ULN (200 mg BIW): 0
- Subjects with Serum Creatinine >[…] ULN-3 × ULN (200 mg BIW): 1 (3.4%)
- Subjects with WBC <1 GI/L (200 mg BIW): 2 (7.1%)
- Subjects with WBC <2-1 GI/L (200 mg BIW): 5 (17.9%)
- Subjects with WBC <3-2 GI/L (200 mg BIW): 9 (32.1%)
- Subjects with WBC <LLN-3 GI/L (200 mg BIW): 3 (10.7%)
- Subjects with Hemoglobin <6.5 g/dL (200 mg QW): 0
- Subjects with Hemoglobin <8-6.5 g/dL (200 mg QW): 5 (13.2%)
- Subjects with Hemoglobin <10-8 g/dL (200 mg QW): 19 (50.0%)
- Subjects with Hemoglobin <LLN-10 g/dL (200 mg QW): 13 (34.2%)
- Subjects with Neutrophils <0.5 GI/L (200 mg QW): 2 (5.3%)
- Subjects with Neutrophils <1.0-0.5 GI/L (200 mg QW): 7 (18.4%)
- Subjects with Neutrophils <1.5-1 GI/L (200 mg QW): 11 (28.9%)
- Subjects with Neutrophils <LLN-1.5 GI/L (200 mg QW): 1 (2.6%)
- Subjects with Platelets <25 GI/L (200 mg QW): 7 (18.4%)
- Subjects with Platelets <50-25 GI/L (200 mg QW): 13 (34.2%)
- Subjects with Platelets <75-50 GI/L (200 mg QW): 7 (18.4%)
- Subjects with Platelets <LLN-75 GI/L (200 mg QW): 7 (18.4%)
- Subjects with Serum Creatinine >1 × ULN-[…] ULN (200 mg QW): 16 (42.1%)
- Subjects with Serum Creatinine >3 × ULN-6 × ULN (200 mg QW): 0
- Subjects with Serum Creatinine >6 × ULN (200 mg QW): 0
- Subjects with Serum Creatinine >[…] ULN-3 × ULN (200 mg QW): 2 (5.3%)
- Subjects with WBC <1 GI/L (200 mg QW): 1 (2.6%)
- Subjects with WBC <2-1 GI/L (200 mg QW): 13 (34.2%)
- Subjects with WBC <3-2 GI/L (200 mg QW): 7 (18.4%)
- Subjects with WBC <LLN-3 GI/L (200 mg QW): 6 (15.8%)
- drug induced liver injury (DILI) (course of the study): No case of drug induced liver injury (DILI) clearly attributable to HDP-CDV
- Subjects Receiving Aldesleukin (40 mg QW): 0
- Subjects Receiving Blood and Related Products (40 mg QW): 1 (4.0%)
- Subjects Receiving Blood, Whole (40 mg QW): 0
- Subjects Receiving Filgrastim (40 mg QW): 4 (16.0%)
- Subjects Receiving Granulocyte Colony Stimulating Factor (40 mg QW): 0
- Subjects Receiving Pegfilgrastim (40 mg QW): 0
- Subjects Receiving Platelets (40 mg QW): 5 (20.0%)
- Subjects Receiving Red Blood Cells (40 mg QW): 0
- Subjects Receiving Red Blood Cells, Concentrated (40 mg QW): 2 (8.0%)
- Subjects Receiving Sargramostim (40 mg QW): 0
- Subjects Receiving Aldesleukin (100 mg BIW): 0
- Subjects Receiving Blood and Related Products (100 mg BIW): 0
- Subjects Receiving Blood, Whole (100 mg BIW): 0
- Subjects Receiving Filgrastim (100 mg BIW): 11 (22.0%)
- Subjects Receiving Granulocyte Colony Stimulating Factor (100 mg BIW): 0
- Subjects Receiving Pegfilgrastim (100 mg BIW): 2 (4.0%)
- Subjects Receiving Platelets (100 mg BIW): 6 (12.0%)
- Subjects Receiving Red Blood Cells (100 mg BIW): 3 (6.0%)
- Subjects Receiving Red Blood Cells, Concentrated (100 mg BIW): 6 (12.0%)
- Subjects Receiving Sargramostim (100 mg BIW): 0
- Subjects Receiving Aldesleukin (100 mg QW): 0
- Subjects Receiving Blood and Related Products (100 mg QW): 0
- Subjects Receiving Blood, Whole (100 mg QW): 1 (3.7%)
- Subjects Receiving Filgrastim (100 mg QW): 4 (14.8%)
- Subjects Receiving Granulocyte Colony Stimulating Factor (100 mg QW): 0
- Subjects Receiving Pegfilgrastim (100 mg QW): 0
- Subjects Receiving Platelets (100 mg QW): 3 (11.1%)
- Subjects Receiving Red Blood Cells (100 mg QW): 2 (7.4%)
- Subjects Receiving Red Blood Cells, Concentrated (100 mg QW): 3 (11.1%)
- Subjects Receiving Sargramostim (100 mg QW): 0
- Subjects Receiving Aldesleukin (200 mg BIW): 0
- Subjects Receiving Blood and Related Products (200 mg BIW): 0
- Subjects Receiving Blood, Whole (200 mg BIW): 0
- Subjects Receiving Filgrastim (200 mg BIW): 5 (16.7%)
- Subjects Receiving Granulocyte Colony Stimulating Factor (200 mg BIW): 1 (3.3%)
- Subjects Receiving Pegfilgrastim (200 mg BIW): 1 (3.3%)
- Subjects Receiving Platelets (200 mg BIW): 6 (20.0%)
- Subjects Receiving Red Blood Cells (200 mg BIW): 4 (13.3%)
- Subjects Receiving Red Blood Cells, Concentrated (200 mg BIW): 5 (16.7%)
- Subjects Receiving Sargramostim (200 mg BIW): 0
- Subjects Receiving Aldesleukin (200 mg QW): 0
- Subjects Receiving Blood and Related Products (200 mg QW): 0
- Subjects Receiving Blood, Whole (200 mg QW): 0
- Subjects Receiving Filgrastim (200 mg QW): 11 (28.2%)
- Subjects Receiving Granulocyte Colony Stimulating Factor (200 mg QW): 1 (2.6%)
- Subjects Receiving Pegfilgrastim (200 mg QW): 1 (2.6%)
- Subjects Receiving Platelets (200 mg QW): 6 (15.4%)
- Subjects Receiving Red Blood Cells (200 mg QW): 3 (7.7%)
- Subjects Receiving Red Blood Cells, Concentrated (200 mg QW): 6 (15.4%)
- Subjects Receiving Sargramostim (200 mg QW): 1 (2.6%)
- relation of deaths to study drug (entire study duration): None of the deaths were considered by the Investigators as related to HDP-CDV
- Cause of death (dose 100 mg BIW): Gut GVHD
- Cause of death (dose 200 mg BIW): GI bleed
- average increase in ALT from Baseline at time of maximum ALT increase (range across cohorts): 1.53 to 3.55 fold
- nephrotoxicity or myelotoxicity (regardless of dose and dosing frequency): no indication of nephrotoxicity or myelotoxicity
